Measurements reported in patent publication US20140235630A1, “COMPOSITIONS AND METHODS FOR THE TREATMENT OF PROLIFERATIVE DISEASES” (Beth Israel Deaconess Medical Center, Inc., priority 2011, published 2014).

What was measured:
HCC1937 and SUM149 cells = assay: Immunoblotting of BRCA1-mutant breast cancer cell lines treated with drugs; format: cell-based, human; conditions: for overall poly-ADP-ribosylation (PAR): Compound B 10 μM; for activation status of EGFR/MAPK pathways: 72 hours treatment, immunoblot
Excerpt: The PI3K inhibitor 5-(2,6-dimorpholinopyrimidin-4-yl)-4-(trifluoromethyl)pyridin-2-amine (Compound A) was obtained through a Material Transfer Agreement with Novartis Pharmaceuticals. Olaparib (Compound B) was purchased from LC Laboratories (Woburn, Mass.) and KU-55933 was purchased from Selleck Chemicals (Houston, Tex.). BRCA1-mutant human breast cancer cell line HCC1937 was from American Type Culture Collection; # CRL-2336, and maintained in DMEM/10% FBS and SUM149 was from Division of Signal Transduction, BIDMC, maintained in Ham's F-12 with 5% fetal bovine serum (FBS), 5 μg/ml insulin, 2 μg/ml hydrocortisone, 5 μg/ml gentamicin and 2.5 μg/ml fungizone. Cell lines were authenticated by immunoblotting for BRCA1 and PTEN and tested for absence of mycoplasma.
Cells were treated with mock, 5-(2,6-dimorpholinopyrimidin-4-yl)-4-(trifluoromethyl)pyridin-2-amine (Compound A), 4-[[3-[4-(cyclopropanecarbonyl)piperazine-1-carbonyl]-4-fluorophenyl]methyl]-2H-phthalazin-1-one (Compound B), KU-55933, or the combination and lysed in cell lysis buffer (9803, Cell Signaling) as per the manufacturer's instructions. Immunoblots were performed using the Nupage System (Invitrogen). The protein concentration was determined using Bradford reagent (Biorad). A total of 20 μg of protein were loaded, except for PAR, Phospho ATM and Phospho DNA-PK/PRKDC western blots, where 40 μg were loaded. Tumor tissue lysates were prepared similarly with the exception of tissue homogenization by using an electric homogenizer for 30 secs after addition of the lysis buffer. Primary antibodies used for western blotting were total AKT (9272), Cleaved Caspace 3 (9661), total ERK (4695), Phospho AKT Ser473 (4058), Phospho ERK Thr202/Tyr204 (9106), Phospho-Histone H2AX Ser139 (2577), PTEN (9559) from Cell Signaling. Phospho ATM Ser1981 (2152-1), Phospho DNA-PK/PRKDC Ser2056 (3892-1) from Epitomics, Inc. CD31 (ab28364), Actin (ab6276), INPP4B (ab81269) from Abcam; pADPr (sc56198) from Santacruz Biotechnology; and Ki-67 (RM-9106) was purchased from Thermo Scientific.

phospho-AKT (S473) = assay: AKT phosphorylation in tumor tissue (immunohistochemistry / immunoblot); format: in vivo, mouse; conditions: for AKT phosphorylation in tumor tissue lysates: immunoblot, tumor taken 2-3 hours after last dose, Compound A 30 mg/kg/day, Compound B 50 mg/kg/day
Method: All animal experiments were conducted in accordance with IACUC-approved protocols at Beth Israel Deaconess Medical Center, Boston, and at the University of Vall d'Hebron, Barcelona, Spain. Female MMTV-CreBRCA1^f/fp53+/− mice were obtained by breeding BRCA1 conditional knockout mice from the NIH repository (01XC8, strain C57BL/6) (Xu et al. Nat. Genet., 22: 37-43, 1999); with MMTV-Cre (Jackson Laboratory B6129-TgN(MMTV-Cre)4Mam) (Wagner et al. Nucleic Acids Res., 25: 4323-4330, 1997) and p53 knockout (Taconic Farms, P53N12-M, C57BL/6) (Donehower et al. Nature, 356: 215-221, 1992). At the time of the study, mice had been inbred for 4 years (>7 generations). The floxed or wild type status of Brca1, the presence of the MMTV-Cre transgene and the p53 heterozygosity were determined by PCR. Mice were examined for the occurrence of tumors twice weekly. When tumormetrics were performed, the length and width of the tumor was determined using calipers, and the tumor volume was determined (width^2×length/2). Tumor volume was used as a measure of growth and was recorded as ratio to tumor volume at diagnosis. Tumor doubling times were calculated using the functions of the best fit curves for all data points in each treatment modality. 5-(2,6-dimorpholinopyrimidin-4-yl)-4-(trifluoromethyl)pyridin-2-amine (Compound A) was resuspended in 5% Methylcellulose solution (Fluka) and administered via oral gavage at 50 mg/kg/day or 30 mg/kg/day. […]
Cells were treated with mock, 5-(2,6-dimorpholinopyrimidin-4-yl)-4-(trifluoromethyl)pyridin-2-amine (Compound A), 4-[[3-[4-(cyclopropanecarbonyl)piperazine-1-carbonyl]-4-fluorophenyl]methyl]-2H-phthalazin-1-one (Compound B), KU-55933, or the combination and lysed in cell lysis buffer (9803, Cell Signaling) as per the manufacturer's instructions. […] The protein concentration was determined using Bradford reagent (Biorad). […]

[1] = system: patient-derived tumor with BRCA1 germline mutation 185delAG; assay: Patient-derived BRCA1 185delAG breast tumor xenograft growth; format: in vivo, human; conditions: tumor resistant to standard chemotherapy and Compound B; Compound A 30 mg/kg/day, Compound B 50 mg/kg/day
Excerpt: FIGS. 6G and 6H are graphs showing the relative tumor volume (RTV) over time of tumors from breast cancer tissues from two patients, one with a 185delAG germline mutation (6G) and the other one with a 2080delA germline mutation (6H), propagated as subcutaneous implants in nude mice. Tumors were allowed to grow to a size of 5 mm when mice were randomized to treatments with either vehicle control (squares), Compound A (upside-down triangles), Compound B (triangles), or their combination (diamonds) (n=6 for each cohort, same dosing as in 6F).
All animal experiments were conducted in accordance with IACUC-approved protocols at Beth Israel Deaconess Medical Center, Boston, and at the University of Vall d'Hebron, Barcelona, Spain. […] The floxed or wild type status of Brca1, the presence of the MMTV-Cre transgene and the p53 heterozygosity were determined by PCR. […] When tumormetrics were performed, the length and width of the tumor was determined using calipers, and the tumor volume was determined (width^2×length/2). Tumor volume was used as a measure of growth and was recorded as ratio to tumor volume at diagnosis. Tumor doubling times were calculated using the functions of the best fit curves for all data points in each treatment modality. […]

SMILES	cleaved caspase 3 (CC3), apoptosis marker (HCC1937 and SUM149 cells; 24 hours)	overall poly-ADP-ribosylation (PAR) (HCC1937 and SUM149 cells; 24 hours, Compound A 1 μM)	H2AX phosphorylation on Serine 139 (γH2AX) (HCC1937 and SUM149 cells; 24 hours, Compound A 1 μM, Compound B 10 μM in combination)	activation status of EGFR/MAPK pathways (HCC1937 and SUM149 cells)	phosphorylation of AKT (HCC1937 and SUM149 cells; increasing concentrations, 24 hours)	phosphorylation of AKT at Ser-473 in tumors (phospho-AKT (S473); IHC of biopsies before and after two weeks of treatment)	AKT phosphorylation in tumor tissue lysates (phospho-AKT (S473))	growth of patient-derived tumor (relative tumor volume) [1]
Nc1cc(C(F)(F)F)c(-c2cc(N3CCOCC3)nc(N3CCOCC3)n2)cn1 [Compound A, 5-(2,6-dimorpholinopyrimidin-4-yl)-4-(trifluoromethyl)pyridin-2-amine]	remained negative	dose dependent increase	increased with increasing concentrations	induced a compensatory activation	diminishing phosphorylation	strongly decreased	potently reduced	modestly attenuated
O=C(c1cc(Cc2n[nH]c(=O)c3ccccc23)ccc1F)N1CCN(C(=O)C2CC2)CC1 [Compound B, 4-[[3-[4-(cyclopropanecarbonyl)piperazine-1-carbonyl]-4-fluorophenyl]methyl]-2H-phthalazin-1-one, reference compound]	–	completely blocked	–	did not have a discernible effect	–	–	induction of AKT phosphorylation	modestly attenuated
